Source: the supplement of paper PMC10627819

How the values were obtained:
Assay in all cases: fitness (endpoint OD595 vs no drug) (fraction); higher = more growth
B. subtilis 168 = system: B. subtilis 168
Summary of the method: (§1)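 Volumes were 30 µl per well, or 55 µl for S. pneumoniae, in 384-well plates inoculated at OD595 0.01. Media were TSB, LB Lennox or CY at 37 °C, and OD595 was read every 30 min for 14 h with first-reading background subtraction. Fitness is the ratio of optical density at stationary-phase entry to the robust mean of no-drug controls. That ratio is capped at 1.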

S. aureus Newman = system: S. aureus Newman
Summary of the method: as §1

S. pneumoniae D39V = system: S. pneumoniae D39V
Summary of the method: as §1

O=C(O)[C@H]1/C(=C/CO)O[C@@H]2CC(=O)N21 [Clavulanic acid] + O=C(O[C@@H]1Cc2c(O)cc(O)cc2O[C@@H]1c1cc(O)c(O)c(O)c1)c1cc(O)c(O)c(O)c1 [EGCG]
fitness
Conditions	partner 6.25 µg/mL	partner 12.5 µg/mL	partner 25 µg/mL	partner 50 µg/mL
B. subtilis 168, first compound 1.5 µg/mL	0.884	–	–	–
B. subtilis 168, first compound 3 µg/mL	0.835	–	–	–
B. subtilis 168, first compound 6 µg/mL	0.715	–	0.272	–
S. pneumoniae D39V, first compound 0.5 µg/mL	–	0.958	0.96	0.939
S. pneumoniae D39V, first compound 1 µg/mL	–	0.889	0.931	0.93
S. pneumoniae D39V, first compound 2 µg/mL	–	0.817	0.829	0.816

fitness, S. aureus Newman, one replicate
Conditions	first compound 0.03125 µg/mL	first compound 0.0625 µg/mL	first compound 0.125 µg/mL
partner 12.5 µg/mL	0.846	0.892	0.824
partner 25 µg/mL	0.821	0.874	0.812
partner 50 µg/mL	0.75	0.733	0.73

CNC(C)C1CCC(N)C(OC2C(N)CC(N)C(OC3OCC(C)(O)C(NC)C3O)C2O)O1 (configuration not stated) [Gentamicin] + CC1=C(C(=O)O)N2C(=O)[C@@H](NC(=O)[C@H](N)c3ccccc3)[C@H]2SC1 [Cephalexin]
main component drawn
Conditions	fitness
B. subtilis 168, first compound 0.0625 µg/mL, partner 0.125 µg/mL	0.852
B. subtilis 168, first compound 0.0625 µg/mL, partner 0.25 µg/mL	0.938
B. subtilis 168, first compound 0.0625 µg/mL, partner 0.5 µg/mL	0.882
B. subtilis 168, first compound 0.125 µg/mL, partner 0.125 µg/mL	0.0869
B. subtilis 168, first compound 0.25 µg/mL, partner 0.125 µg/mL	0.0552
B. subtilis 168, first compound 0.25 µg/mL, partner 0.25 µg/mL	0.0555
B. subtilis 168, first compound 0.25 µg/mL, partner 0.5 µg/mL	0.0535
S. aureus Newman, first compound 0.5 µg/mL, partner 0.25 µg/mL	0.968
S. aureus Newman, first compound 0.5 µg/mL, partner 0.5 µg/mL	0.964
S. aureus Newman, first compound 0.5 µg/mL, partner 1 µg/mL	0.922
S. aureus Newman, first compound 1 µg/mL, partner 0.25 µg/mL	≥ 1
S. aureus Newman, first compound 1 µg/mL, partner 0.5 µg/mL	0.986
S. aureus Newman, first compound 1 µg/mL, partner 1 µg/mL	≥ 1
S. aureus Newman, first compound 2 µg/mL, partner 0.25 µg/mL	0.993
S. aureus Newman, first compound 2 µg/mL, partner 0.5 µg/mL	≥ 1
S. aureus Newman, first compound 2 µg/mL, partner 1 µg/mL	≥ 1
S. pneumoniae D39V, first compound 2 µg/mL, partner 2 µg/mL	0.0158
S. pneumoniae D39V, first compound 2 µg/mL, partner 4 µg/mL	0.0234
S. pneumoniae D39V, first compound 4 µg/mL, partner 1 µg/mL	0.424
S. pneumoniae D39V, first compound 4 µg/mL, partner 2 µg/mL	0.0331
S. pneumoniae D39V, first compound 4 µg/mL, partner 4 µg/mL	0.026
S. pneumoniae D39V, first compound 8 µg/mL, partner 1 µg/mL	0.401
S. pneumoniae D39V, first compound 8 µg/mL, partner 2 µg/mL	0.0415
S. pneumoniae D39V, first compound 8 µg/mL, partner 4 µg/mL	0.0404

fitness, one replicate, main component drawn
Conditions	partner 0.125 µg/mL	partner 0.25 µg/mL	partner 0.5 µg/mL	partner 1 µg/mL
B. subtilis 168, first compound 0.0625 µg/mL	–	–	–	0.986
B. subtilis 168, first compound 0.125 µg/mL	–	–	–	0.941
B. subtilis 168, first compound 0.25 µg/mL	–	–	–	0.418
S. aureus Newman, first compound 0.375 µg/mL	–	≥ 1	≥ 1	≥ 1
S. aureus Newman, first compound 0.75 µg/mL	–	≥ 1	≥ 1	≥ 1
S. aureus Newman, first compound 1.5 µg/mL	–	0.986	0.877	0.963
S. pneumoniae D39V, first compound 2 µg/mL	0.962	0.96	0.947	–
S. pneumoniae D39V, first compound 4 µg/mL	0.993	0.955	≥ 1	–
S. pneumoniae D39V, first compound 8 µg/mL	0.93	0.965	0.956	–
